Measured values reported in patent publication US20120295838A1, “Selective poly-substituted glycine antibiotics and related compositions” (priority 2008, published 2012).
Numbered stars: 1 amine (or outer) side, 2 acyl side, 3 side chain; on linkers, the order of the positions; unused ones are H or OH. Square brackets hold non-standard residues; d marks the D form. Ends that are not written are not given here. Peptide text beside a SMILES is read from it. Gly(N-CH2CH2-imidazol-4-yl) = O=C(O)CNCCc1c[nH]cn1; X1 = CC(C)[C@H](C)N(CC(=O)[*:2])[*:1]; Nspe = C[C@H](NCC(=O)O)c1ccccc1; Nlys = NCCCCNCC(=O)O

Experiments:
[1] = tested on: NIH 3T3 mouse fibroblast cells; assay: MTS assay, NIH 3T3 cells; assay type: cell-based; details: mouse, 3 h
In short: (§1)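 NIH/3T3 cells seeded at 5,000 per well, grown a day in DMEM with 10% FBS, then washed and exposed to serially diluted peptoid in HBSS together with MTS reagent. Absorbance at 490 nm read after 3 hours at 37 °C as a measure of metabolic activity; mean of six replicates.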

[2] = tested on: Staphyloccus aureus (ATCC #25923); assay: Murine intraperitoneal infection model; assay type: in vivo; details: mouse, S. aureus I.P.
Method: Using a murine peritoneal injection mouse model, the ability of peptoids to treat infection was evaluated in vivo. The results from three separate studies of peptoid 1 and two of peptoid 1-Nhis6,12 against saline treated controls are shown in FIG. 7. The horizontal line represents the geometric mean of each population.
Murine intraperitoneal infection model. Bacteria was prepared by inoculating 5 mL of MHB with a single colony of Staphyloccus aureus (ATCC #25923) from a freshly streaked plate and grown overnight at 37 C. The following morning, the bacteria was subcultured by diluting 1/3 in MHB and grown for approximately 1 .5 hours. The bacteria were then diluted 10-fold in a 5% mucin in PBS solution and thoroughly mixed. A sample was reserved to later determine the amount of bacteria the mice received.
Mice were weighed, marked, and injected I.P. with 200 uL of S. aureus inoculum. Four hours post infection, mice were treated I.P. with 4 mg/kg peptoid (˜100 ug per mouse). The infection is allowed to proceed overnight. Mice were euthanized by CO2 asphyxiation after 24 hours, and the peritoneal cavity was exposed and lavaged with 5 mL PBS. The lavage was mixed and reserved on ice until plating. The lavages were diluted to 10^−5 (in1/10 increments) in PBS, and all dilutions were plated onto MH agar, in duplicate. 50 uL of lavage was spot plated, allowed to dry, and incubated overnight at 37° C. Colonies were counted the following day, and the CFU/ml of each sample was calculated. Plates that had too many colonies to count were assigned an arbitrary number of 1000 colonies.

MTS assay, NIH 3T3 cells = assay type: cell-based, mouse; details: mouse, NIH 3T3 fibroblast cells
In short: as §1

GIGKFLKKAKKFGKAFVKILKK-NH2 [pexiganan, reference compound]
ID50 [1]: 9 µM

C[C@@H](c1ccccc1)N(CC(=O)N(CCc1cnc[nH]1)CC(=O)N(CCCCN)CC(=O)N(CC(=O)N(CC(=O)N(CCCCN)CC(=O)N(CC(=O)N(CCc1cnc[nH]1)CC(N)=O)[C@@H](C)c1ccccc1)[C@@H](C)c1ccccc1)[C@@H](C)c1ccccc1)C(=O)CN(CCCCN)C(=O)CN(C(=O)CN(C(=O)CNCCCCN)[C@@H](C)c1ccccc1)[C@@H](C)c1ccccc1 [1-Nhis6,12, H-(Nlys-Nspe-Nspe-Nlys-Nspe-Nhis)2-NH2] (H-[Nlys][Nspe][Nspe][Nlys][Nspe][Gly(N-CH2CH2-imidazol-4-yl)][Nlys][Nspe][Nspe][Nlys][Nspe][Gly(N-CH2CH2-imidazol-4-yl)]-NH2)
bacterial counts from the peritoneal lavage ([2]; 4 mg/kg peptoid I.P. four hours post infection, 24 hours, vs saline treated controls): not reduced | mice that died prematurely during the exposure period ([2]; 4 mg/kg peptoid I.P., eleven mice for 1-Nhis6,12): eight

CC(C)[C@H](C)N(CC(=O)N(CC(=O)N(CCCCN)CC(=O)N(CC(=O)N(CC(=O)N(CCCCN)CC(=O)N(CC(=O)N(CC(=O)N(CCCCN)CC(=O)N(CC(=O)N(CC(N)=O)[C@@H](C)c1ccccc1)[C@@H](C)C(C)C)[C@@H](C)c1ccccc1)[C@@H](C)C(C)C)[C@@H](C)c1ccccc1)[C@@H](C)C(C)C)[C@@H](C)c1ccccc1)C(=O)CNCCCCN [1-Nsdp2,5,8,11, H-(Nlys-Nsdp-Nspe)4-NH2] (H-[Nlys][X1][Nspe][Nlys][X1][Nspe][Nlys][X1][Nspe][Nlys][X1][Nspe]-NH2)
CC50 at 3 h (MTS assay, NIH 3T3 cells): 20 µM
